Experimental data: patent US7622491B2, “Modulators of PPAR and methods of their preparation” (Metabolex Inc., priority 2004, dated 2009)
Like-named read-outs stand apart in the source and are kept apart here.

Tests used:
Format in all cases: cell-based
[1] = molecular target: T1, mouse PPAR α (Mus musculus, UniProt P23204); experiment: PPAR α transactivation (GAL4 chimeric receptor luciferase reporter) assay
T1 construct: expressed in transfected cells; host or cells: HEK293T
T1 sequence (P23204 239-466 limits assumed): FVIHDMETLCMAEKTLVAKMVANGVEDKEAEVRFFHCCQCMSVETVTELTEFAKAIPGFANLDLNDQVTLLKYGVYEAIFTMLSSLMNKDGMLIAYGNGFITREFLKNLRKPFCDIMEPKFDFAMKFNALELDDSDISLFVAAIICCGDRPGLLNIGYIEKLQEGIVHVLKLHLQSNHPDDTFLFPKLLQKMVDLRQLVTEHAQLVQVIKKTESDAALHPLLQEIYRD
Description: (§1) Chimeric receptors were constructed in which the yeast transcription factor GAL4 DNA binding domain was fused to the ligand binding domain of either mouse PPARγ, mouse PPAR δ or mouse PPAR α in order to assess the ability of the compounds of the present invention to activate gene expression in a PPAR-dependent manner. The chimeric receptor expression plasmids (GAL4-mPPARγ, GAL4-mPPAR δ and GAL4-PPAR α) and the reporter plasmid containing 5×GAL4 binding site (pFR-Luc, obtained from Stratagene) were transfected into HEK293T cells using the Lipofectamine 2000 reagent (Invitrogen), according to the manufacturers instructions. Six hours after transfection, the culture medium was renewed and the cells were incubated for 20 hours in presence of either 1) DMSO (vehicle), 2) a compound of the invention or 3) a reference compound for comparison. Rosiglitazone (obtained from WDF Pharma) was used as a reference compound for the PPARγ assay; GW501516 (prepared as described in Sznaidman et al. Bioorg. Med. Chem. Lett. (2003) 13:1517-1521) was used as a reference compound for the PPAR δ assay and GW7647 (obtained from Sigma) was used as a reference compound for the PPAR α assay. Luciferase activity was measured as a reporter of gene expression. Luciferase activity on the cell lysates using the Steady-Glo reagent was measured according to the manufacturers instructions.

[2] = molecular target: T2, mouse PPAR δ (Mus musculus, UniProt P35396); experiment: PPAR δ transactivation (GAL4 chimeric receptor luciferase reporter) assay; settings: GAL4-mPPAR δ chimeric receptor, pFR-Luc reporter, HEK293T cells, 20 hours incubation
T2 construct: expressed in transfected cells; host or cells: HEK293T
T2 sequence (P35396 210-438 limits assumed): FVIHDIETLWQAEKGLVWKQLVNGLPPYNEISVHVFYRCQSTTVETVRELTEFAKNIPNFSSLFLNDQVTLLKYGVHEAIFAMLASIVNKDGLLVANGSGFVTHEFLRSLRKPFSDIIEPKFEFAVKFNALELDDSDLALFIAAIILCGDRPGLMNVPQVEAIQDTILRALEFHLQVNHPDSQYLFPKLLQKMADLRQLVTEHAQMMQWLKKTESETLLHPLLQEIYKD
Description: as §1

[3] = molecular target: T3, mouse PPARγ (Mus musculus, UniProt P37238); experiment: PPARγ transactivation (GAL4 chimeric receptor luciferase reporter) assay; settings: GAL4-mPPARγ chimeric receptor, pFR-Luc reporter, HEK293T cells, 20 hours incubation
T3 construct: expressed in transfected cells; host or cells: HEK293T
T3 sequence (P37238 238-503 limits assumed): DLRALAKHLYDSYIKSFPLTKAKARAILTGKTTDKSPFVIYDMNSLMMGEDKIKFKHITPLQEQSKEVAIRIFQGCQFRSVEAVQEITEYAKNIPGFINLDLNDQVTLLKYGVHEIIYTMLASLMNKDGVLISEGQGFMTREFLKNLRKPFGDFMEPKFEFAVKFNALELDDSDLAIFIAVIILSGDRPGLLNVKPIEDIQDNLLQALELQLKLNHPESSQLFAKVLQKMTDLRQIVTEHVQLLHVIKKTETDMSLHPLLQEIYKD
Description: as §1

[4] = pFR-Luc reporter, HEK293T cells, 20 hours incubation
[5] = read-out: Gene Activation Assay: EC50 (≦10 μM) PPAR alpha, pFR-Luc reporter, HEK293T cells, 20 hours incubation

EC50 [1, 4] [µM] | EC50 [2] [µM] | EC50 [3] [µM] | EC50 [1, 5] [µM] | Structure (SMILES)
 | ≤ 10 | ≤ 10 | > 10 | O=C(O)Cn1ccc2cc(OCCCOc3ccc(Cl)cc3-n3nc4ccccc4n3)ccc21 [Compound 1800, {5-[3-(2-Benzotriazol-2-yl-4-chloro-phenoxy)-propoxy]-indol-1-yl}-acetic acid]
> 30 | ≤ 10 | ≤ 10 |  | O=C(O)Cn1ncc2cc(OCCCOc3ccc(Cl)cc3-n3nc4ccccc4n3)ccc21 [Compound 1700, {5-[3-(2-Benzotriazol-2-yl-4-chloro-phenoxy)-propoxy]-indazol-1-yl}-acetic acid]
 | ≤ 10 | ≤ 10 | > 10 | O=C(O)Cn1ccc2cc(OCCOc3ccc(Cl)cc3-n3nc4ccccc4n3)ccc21 [Compound 1900, {5-[2-(2-Benzotriazol-2-yl-4-chloro-phenoxy)-ethoxy]-indol-1-yl}-acetic acid]
≤ 10 | ≤ 10 | ≤ 10 |  | Cc1cccc2nn(-c3cc(Cl)ccc3OCCCOc3ccc(CC(=O)O)cc3)nc12 [Compound 1600, (4-{3-[4-Chloro-2-(4-methyl-benzotriazol-2-yl)-phenoxy]-propoxy}-phenyl)-acetic acid]

Continued, compound first:

Structure (SMILES) | EC50 [1, 4] [µM] | EC50 [2] [µM] | EC50 [3] [µM] | EC50 [1, 5] [µM]
CCCc1cc(CC(=O)O)ccc1OCCOc1ccc(Cl)cc1-n1nc2ccccc2n1 [Compound 900, {4-[2-(2-Benzotriazol-2-yl-4-chloro-phenoxy)-ethoxy]-3-propyl-phenyl}-acetic acid] | > 30 | ≤ 10 | ≤ 10 | 
O=C(O)Cc1ccc(OCCCOc2ccc(Cl)cc2-n2nc3c(n2)CCCC3)cc1 [Compound 1200, (4-{3-[4-Chloro-2-(4,5,6,7-tetrahydro-benzotriazol-2-yl)-phenoxy]-propoxy}-phenyl)-acetic acid] | ≤ 10 | ≤ 10 | ≤ 10 | 
Cc1cc(SCCOc2ccc(Cl)cc2-n2nc3ccccc3n2)ccc1OCC(=O)O [Compound 400, {4-[2-(2-Benzotriazol-2-yl-4-chloro-phenoxy)-ethylsulfanyl]-2-methyl-phenoxy}-acetic acid] |  | ≤ 10 | ≤ 10 | > 10
O=C(O)Cc1ccc(OCCCOc2ccc(Cl)cc2C#Cc2ccccc2)cc1 [Compound 1300, {4-[3-(4-Chloro-2-phenylethynyl-phenoxy)-propoxy]-phenyl}-acetic acid] |  | ≤ 10 | ≤ 10 | > 10
O=C(O)Cc1ccc(OCCOc2ccc(Cl)cc2-n2nc3ccccc3n2)cc1 [Compound 800, {4-[2-(2-Benzotriazol-2-yl-4-chloro-phenoxy)-ethoxy]-phenyl}-acetic acid] |  | ≤ 10 | ≤ 10 | > 10
O=C(O)Cc1ccc(OCCCOc2ccc(Cl)cc2C#Cc2ccccn2)cc1 [Compound 1500, {4-[3-(4-Chloro-2-pyridin-2-ylethynyl-phenoxy)-propoxy]-phenyl}-acetic acid] |  | ≤ 10 | ≤ 10 | > 10
CCCc1cc(CC(=O)O)ccc1OCCCOc1ccc(Cl)cc1-n1nc2ccccc2n1 [Compound 600, {4-[3-(2-Benzotriazol-2-yl-4-chloro-phenoxy)-propoxy]-3-propyl-phenyl}-acetic acid] | ≤ 10 | ≤ 10 | ≤ 10 | 
COc1cccc(C#Cc2cc(Cl)ccc2OCCCOc2ccc(CC(=O)O)cc2)c1 [Compound 1400, (4-{3-[4-Chloro-2-(3-methoxy-phenylethynyl)-phenoxy]-propoxy}-phenyl)-acetic acid] |  | ≤ 10 | ≤ 10 | > 10
O=C(O)Cc1ccc(OCCCOc2ccc(Cl)cc2-n2nc3ccccc3n2)cc1 [Compound 500, {4-[3-(2-Benzotriazol-2-yl-4-chloro-phenoxy)-propoxy]-phenyl}-acetic acid] | ≤ 10 | ≤ 10 | ≤ 10 | 
Cc1cc(SCCCOc2ccc(Br)cc2-c2nc3ccccc3o2)ccc1OCC(=O)O [Compound 300, {4-[3-(2-Benzooxazol-2-yl-4-bromo-phenoxy)-propylsulfanyl]-2-methyl-phenoxy}-acetic acid] | ≤ 10 | ≤ 10 | ≤ 10 | 
